The values below come from patent US20220154296A1, “USE OF ANTI-PD-1 ANTIBODY IN PREPARATION OF MEDICAMENT FOR TREATING SOLID TUMORS” (Shanghai Junshi Biosciences Co., Ltd., priority 2019, published 2022).

One data set has as its system CT-26 cells. In words: Inhibitory effect on tumor growth in CT-26 cell-transplanted B-hPD-1 mice. In kind it is in vivo. As to the method:
CT-26 cells were seeded subcutaneously on the right side of hPD-1 humanized female mice at a concentration of 2.5×10^5 cells/0.1 mL, and the mice were randomly grouped by tumor volume when tumors grew to about 93 mm^3 with 7 mice per group, for a total of 4 groups:
G1: Anti-KLH hIgG4 (1 mg/kg) negative control group;
G3: palbociclib (100 mg/kg);
The experiment was ended 11 days after the first administration. Tumor volume and body weight of mice were measured and recorded twice a week. At the end of the experiment, animals were euthanized and tumor growth inhibition (TGITv%) was calculated.

Data set [1] relates to chemotherapy-refractory ESCC. To be noted: chemotherapy-refractory ESCC patients in China; cited from earlier work.

Turning to `CC(=O)c1c(C)c2cnc(Nc3ccc(N4CCNCC4)cn3)nc2n(C2CCCC2)c1=O` [palbociclib, reference compound], in the data set with CT-26 cells (11 days after the first administration, toripalimab 1 mg/kg i.p., palbociclib 100 mg/kg orally), the “TGI (%)” value was 44.8%. Also, in the data set on CT-26 cells (mean ± standard error, toripalimab 1 mg/kg i.p. twice a week, palbociclib 100 mg/kg orally once a day, 7 mice per group), the “Tumor volume 11 days after the first administration” value came to 1550 ± 189 mm^3.

B1: SHR-1210: anti-PD-1 antibody SHR-1210, in clinical stage (antibody, chains of the INN, looked up, V domains shown)
VH: EVQLVESGGGLVQPGGSLRLSCAASGFTFSSYMMSWVRQAPGKGLEWVATISGGGANTYYPDSVKGRFTISRDNAKNSLYLQMNSLRAEDTAVYYCARQLYYFDYWGQGTTVTVSS
VL: DIQMTQSPSSLSASVGDRVTITCLASQTIGTWLTWYQQKPGKAPKLLIYTATSLADGVPSRFSGSGSGTDFTLTISSLQPEDFATYYCQQVYSIPWTFGGGTKVEIK
For B1, in data set [1], the Anti-tumor activity entry is “effective anti-tumor activity” and the Safety result is “controllable safety”.
